The text below walks through data of patent US9505798B2, “Steroid compounds as RORyt modulators and uses thereof” (New York University, priority 2010, dated 2016).

The target in one assay is T1, human RORγ LBD (Homo sapiens, UniProt P51449).
T1 construct: Human RORγ LBD (residues 262-518); 6×His-tag (N); thrombin cleavage site (N); made in house; host or cells: E. coli BL21-CodonPlus(DE3)-RIL, pET46 Ek/Lic vector
Kind of assay: In vitro binding and competition assay (fluorescence polarization, fluorescein-labeled 25-hydroxycholesterol). Here is the method: All DNA constructs were generated by PCR-based methodology and confirmed by sequencing. […] IL-17a, IFN-γ, IL-4, and CCR6 protein expression was examined by intracellular or surface staining according to the manufacturer's protocol.
The cells were induced with 0.5 mM IPTG at 16° C. overnight, then collected and lysed in 20 mM Tris-HCl (pH 8.0), 500 mM NaCl, 20 mM imidazole and 10% glycerol. Supernatant was loaded onto a HisTrap™ FF crude 5 mL column on an AKTAxpress HPLC system. The protein was eluted with a 20-500 mM imidazole gradient, dialyzed overnight against 20 mM Tris-HCl (pH 8.0) and 200 mM NaCl, and further purified on a Q Sepharose™ Fast Flow anion exchange column (Amersham Biosciences). The flow-through fraction containing pure RORγ LBD protein was collected, and DTT was added to 10 mM immediately after calculating protein concentration by OD280. For the binding assay, 2 nM Fluorescein-labeled 25-hydroxycholesterol was incubated with purified RORγ LBD protein for 2 hrs at room temperature. Protein concentration was varied by serial dilution in binding buffer (20 mM Tris-HCl (pH 8.0), 200 mM NaCl, 10 mM DTT). Fluorescent polarization signals were measured with a Beacon 2000 (PanVera).

The next assay concerns the target T2, mouse RORγt (Mus musculus, UniProt P51450).
T2 construct: mouse RORγt (amino acids 79 to the carboxyl terminal end); expressed in transfected cells
T2 sequence (P51450 79-495 isoform P51450-2): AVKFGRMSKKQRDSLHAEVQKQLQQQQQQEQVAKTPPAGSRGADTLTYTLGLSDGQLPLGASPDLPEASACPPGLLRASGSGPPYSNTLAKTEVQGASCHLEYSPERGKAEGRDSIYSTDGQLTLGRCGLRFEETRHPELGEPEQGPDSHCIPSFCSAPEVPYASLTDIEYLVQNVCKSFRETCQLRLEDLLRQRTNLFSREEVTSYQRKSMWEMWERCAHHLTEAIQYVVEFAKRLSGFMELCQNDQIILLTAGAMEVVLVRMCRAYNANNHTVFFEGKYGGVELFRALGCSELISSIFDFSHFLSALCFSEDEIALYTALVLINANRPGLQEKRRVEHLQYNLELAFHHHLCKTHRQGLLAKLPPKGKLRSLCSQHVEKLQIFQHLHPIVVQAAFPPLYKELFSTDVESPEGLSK
As to the kind of experiment: Drosophila S2 cell RORγt luciferase reporter. The format is cell-based. An excerpt: The Drosophila S2 cell line was originally purchased from Invitrogen and was maintained in Schneider's medium supplemented with 10% heat-inactivated bovine fetal calf serum and antibiotics (Invitrogen). […] The resulting chimeric gene was subcloned into the copper inducible pMT/V5-His A vector (Invitrogen). […] Coding sequences for firefly luciferase (Promega) were PCR amplified and subcloned into pUAST vector containing Gal4 binding enhancer sequences. Renilla luciferase construct under the polIII promoter was obtained from Dr. Dasgupta's laboratory (NYU medical center). In order to generate stable cell lines, cells were co-transfected with pMT-G4 DBD-RORγt, pMT-G4 DBD-RORα, pMT-G4 DBD-DHR3, or pMT-G4 DBDVP16 and pHygro plasmids (Invitrogen) and screened for resistant colonies in the presence of hygromycin (0.3 mg/mL). […] Using similar methods, stable clones with genomic integration of the luciferase reporters and other reporters were generated such as pMT-RORα_luc, pMT-DHR3_Luc, or pMT-VP16_luc.
The following representative compounds are tested for their RORγt inhibitory activity and toxicity.
Promega Dual-Glo system is widely used for HTS as the luciferase substrates. Cell culture medium was reduced to the final volume of 10 μl or less and 10 μl of Dual-glo and 10 μl of Stop-glo luciferase substrates were added in a sequencial manner (Promega). Firefly and Renilla luciferase activity was determined by measuring luminescence signals using an automated 384-well plate reader equipped with multiple stack units (such as the Analyst GT or Envision plate readers).
10,000 Drosophila stable S2 cells with genomic integration of the Cu2+-inducible G4 DBD-mouse RORγ construct were transfected with 5 ng of pUASTfirefly luciferase and 7 ng of Pol III-Renilla luciferase and dispensed into white bottom-tissue culture 384-well plates (Corning). […] The following morning, Stop-glo luciferase substrates (Promega) were used to measure luciferase activity.
The Drosophila S2 cell line was originally purchased from Invitrogen and was maintained in Schneider's Drosophila medium supplemented with 10% heat-inactivated bovine fetal calf serum and 1× antibiotic-antimycotic solution (Invitrogen). […] The resulting chimeric gene was subcloned into the copper inducible pMT/V5-His A vector (Invitrogen) and into the constitutive pAc vector. […] Coding sequences for firefly luciferase (Promega) were PCR amplified and subcloned into the pUAST vector containing five Gal4 binding enhancer sequences. The Renilla luciferase construct under a pol III promoter and the pAc vector were obtained from R. Dasgupta (NYU School of Medicine). To generate cell lines stably expressing various chimeric proteins upon copper addition, S2 cells were co-transfected with pMT plasmids encoding individual G4 DBD chimeric constructs and the pCoHygro plasmid (Invitrogen), before screening for resistant colonies in the presence of hygromycin (0.3 mg/mL). […] The human androgen receptor (hAR) expression plasmid pMK33-hAR and its reporter TAT3-Luc were obtained from M. Garabedian (NYU School of Medicine). […] R1881 (10 nM) and Dafachronic acid (10 μM) were used as ligands for hAR and Daf12. Upon treatment of cells with copper, in 384 well plates, there was specific increase in firefly luciferase activity versus normalized Renilla luciferase activity for all cell lines described above, validating the method for high-throughput screen.
Transfections of firefly and Renilla reporter constructs were performed using the Effectene kit from Qiagen according to the manufacturer's protocol with some modifications.

Like-named read-outs stand apart in the source and are kept apart here.

T1 sequence (P51449 262-518): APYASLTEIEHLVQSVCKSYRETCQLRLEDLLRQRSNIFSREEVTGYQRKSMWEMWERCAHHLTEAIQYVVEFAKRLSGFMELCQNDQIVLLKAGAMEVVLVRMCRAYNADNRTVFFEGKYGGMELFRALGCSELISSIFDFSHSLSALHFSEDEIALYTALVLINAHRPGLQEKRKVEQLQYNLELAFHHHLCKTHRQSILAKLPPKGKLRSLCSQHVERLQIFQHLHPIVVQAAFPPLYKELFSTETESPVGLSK

For `CC1O[C@@H](OC2C(C)O[C@H](OC3C(C)O[C@@H](O[C@H]4CC[C@@]5(C)[C@H](CC[C@@H]6[C@@H]5C[C@@H](O)[C@]5(C)[C@@H](C(CO)CCO)CC[C@]65O)C4)C[C@H]3O)C[C@H]2O)C[C@@H](O)C1O` (stereo partly drawn) [Compound 13, 20,22-Dihydrodigoxin-21,23-diol], the IC50 at human RORγ LBD worked out at 12 µM. Further, at mouse RORγt, the IC50 lay in the range of 11 to 20 µM and the “effect on RORγ transcriptional activity” value is listed as “still possessed RORγ inhibitory activity”.
With `C[C@H]1O[C@@H](O[C@H]2[C@@H](O)C[C@H](O[C@H]3[C@@H](O)C[C@H](O[C@H]4CC[C@@]5(C)[C@H](CC[C@@H]6[C@@H]5C[C@@H](O)[C@]5(C)[C@@H](C7=CC(=O)OC7)CC[C@]65O)C4)O[C@@H]3C)O[C@@H]2C)C[C@H](O)[C@@H]1O` [Digoxin], the IC50 is 4.1 µM on human RORγ LBD (in vitro competition assay, human RORγ LBD, read-out: IC50, displacement of fluorescein-labeled 25-hydroxycholesterol); 1 to 10 µM on mouse RORγt (S2 cell RORγt reporter, read-out: IC50); 1.98 µM at mouse RORγt (read-out: IC50 (half-maximal inhibitory concentration), RORγ transcriptional activity).
